{
  "source": "patent US12098135B2",
  "about": "“Aldoketo reductase inhibitors and uses thereof” (CASE WESTERN RESERVE UNIVERSITY, priority 2018, dated 2024)",
  "target": "T1, AKR1A1 (Homo sapiens, UniProt P14550)",
  "T1 sequence (P14550 1-325)": "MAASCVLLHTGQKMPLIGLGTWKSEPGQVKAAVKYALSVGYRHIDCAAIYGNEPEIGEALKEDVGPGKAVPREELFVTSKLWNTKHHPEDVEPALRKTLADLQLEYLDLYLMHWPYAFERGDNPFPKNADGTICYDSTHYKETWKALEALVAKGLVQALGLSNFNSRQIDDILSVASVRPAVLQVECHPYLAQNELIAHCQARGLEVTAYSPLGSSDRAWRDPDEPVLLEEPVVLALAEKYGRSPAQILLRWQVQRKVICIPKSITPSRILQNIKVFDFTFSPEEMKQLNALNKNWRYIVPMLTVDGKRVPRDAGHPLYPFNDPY",
  "experiment": "AKR activity measured using S-nitroso-Coenzyme A (SNO-CoA) as a substrate; selectivity for AKR1A1 versus AKR1B1",
  "type": "biochemical",
  "text": "In some embodiments, the selectivity of the AKR inhibitor for AKR1A1 inhibition versus other AKRs, such as AKR1B1, can be measured using S-nitroso-Coenzyme A (SNO-CoA) as a substrate. In this instance where SNO-CoA is used as a substrate to measure AKR activity, the AKR inhibitor can have a selectivity for AKR1A1 versus AKR1B1 of ≥1 time, ≥2 times, ≥5 times, ≥10 times, ≥20 times, ≥30 times, ≥40 times, ≥50 times or more. By way of example, JSD-26-1, which is described in the example below, has an AKR1A1/AKR1B1 selectivity of at least 9. In some embodiments, the AKR inhibitor can have negligible inhibition of AKR1B1 activity of SNO-CoA, and particularly compared to AKR1A1 activity.",
  "data": [
    {"smiles": "O=C1NC(=O)C2(N1)c1ccccc1-c1ccc(C3CC3)cc12", "note": "(stereo not shown) [JSD-26-1]", "values": [
      {"measurement": "AKR1A1/AKR1B1 selectivity", "value": "at least 9"}
    ]}
  ]
}
